Test results published in patent US20050009924A1 (priority 2003, published 2005).
Read-outs that look alike come from different tables or passages of the source.

Columns and labels:
[1] = test system: transcriptional activity of hTERT; assay: SEAP reporter assay of hTERT expression, PhTERT-SEAP (hTERT-BJ1); format: cell-based, human; conditions: hTERT-BJ1
Outline: (§1)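 Read-out: rate of absorbance rise at 405 nm from p-nitrophenyl phosphate (12 mM final) hydrolysis by secreted alkaline phosphatase in heat-treated (65° C, 10 min) culture medium. Drugs at varying amounts were applied for 24 h after a 24 h pre-culture at 37° C.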

[2] = test system: non-small-cell lung cancer cells H1299
human hepatoma G2 cells = assay: Cytotoxicity assay (XTT colorimetric), Hep G2; format: cell-based; conditions: 48 h of drug exposure
rat glioma C6 cells = assay: Cytotoxicity assay (XTT colorimetric), C6 cells; format: cell-based; conditions: 48 h of drug exposure
[3] = test system: transcriptional activity of hTERT; assay: SEAP reporter assay of hTERT expression, PhTERT-SEAP (H1299); format: cell-based, human; conditions: hTERT-H1299
Outline: as §1

[4] = test system: hepatitis B virus transfected hepatoma cell lines, HepG 2.2.15 cells; assay: Cytotoxicity assay, 2.2.15 cells; format: cell-based, human; conditions: 48 h of drug exposure

Experimental for hTERT-BJ1 cells: The tetrazolium reagent (MTT; 3-(4,5-di-methylthiazol)-2,5-diphenyl tetrazolium bromide, USB) was designed to yield a colored formazan upon metabolic reduction by viable cells. Approximately […] cells were plated onto each well of a 96-well plate and incubated in 5% CO2 at 37° C. for 24 h. To assess the in vitro cytotoxicity, each compound was dissolved in DMSO and prepared immediately before the experiments and was diluted into the complete medium before addition to cell cultures. Test compounds were then added to the culture medium for designated various concentrations. After 48 h, an amount of 25 μL of MTT was added to each well, and the samples were incubated at 37° C. for 4 h. A 100 μL solution of lysis buffer containing 20% SDS and 50% N,N-dimethylformamide was added to each well and incubated at 37° C. for another 16 h. The absorbency at 550 nm was measured using an ELISA reader.
Non small lung cancer cells H1299 (telomerase positive) were grown in RPMI 1640 media supplemented with 10% fetal bovine serum, 100 units/mL penicillin and 100 mg/mL streptomycin in a humidified atmosphere with 5% CO2 at 37° C. The hTERT immortalized hTERT-BJ1 (BD Biosciences Clontech)^39 were grown in DMEM media supplemented with 10% fetal calf serum, 100 units/mL penicillin and 100 mg/mL streptomycin, 1 mM sodium pyruvate, and 4 mM I-arginine in a humidified atmosphere with 5% CO2 at 37° C. Culture media were changed every 3 days. […] The stable clones derived from H1299 or hTERT-BJ1 were cultured using conditions that are similar to their parental cells.

O=C1c2cccc(NCCCO)c2C(=O)c2cccc(NCCCO)c21 [IVh, 1,5-Bis(propanolamino)anthraquinone]
Relative SEAP activity (%) ([1]; 2.8 μM): 41 ± 12.5%
Relative SEAP activity (%) ([1]; 28 μM): 0 ± 22.1%
Relative SEAP activity (%) ([1]; 282 μM): (−3) ± 10.0^ %
Relative MTT viability (%) ([2]; 2.8 µM): 107 ± 5.0%
Relative MTT viability (%) ([2]; 28 µM): 49 ± 3.5%
Relative MTT viability (%) ([2]; 282 µM): 40 ± 10.4%
Relative MTT viability (%) (hTERT-BJ1 cells; 2.8 µM): 72 ± 7.4%
Relative MTT viability (%) (hTERT-BJ1 cells; 28 µM): 39 ± 10.5%
Relative MTT viability (%) (hTERT-BJ1 cells; 282 µM): 26 ± 15.9%
IC50 (human hepatoma G2 cells): > 20 µM
IC50 (rat glioma C6 cells): > 20 µM
Relative SEAP activity (%) ([3]; 2.8 μM): 88 ± 4.9%
Relative SEAP activity (%) ([3]; 28 μM): 69 ± 5.4%
Relative SEAP activity (%) ([3]; 282 μM): 33 ± 2.2%
IC50 [4]: > 20 µM

O=C1c2cccc(NCCCCO)c2C(=O)c2cccc(NCCCCO)c21 [IVk, 1,5-Bis(butanolamino-)-anthraquinone]
Relative SEAP activity (%) ([1]; 2.6 μM): 114 ± 20.5%
Relative SEAP activity (%) ([1]; 26 μM): 113 ± 21.6%
Relative SEAP activity (%) ([1]; 265 μM): 127 ± 19.9%
Relative MTT viability (%) ([2]; 2.6 µM): 114 ± 8.1%
Relative MTT viability (%) ([2]; 26 µM): 110 ± 7.1%
Relative MTT viability (%) ([2]; 265 µM): 16 ± 3.4%
Relative MTT viability (%) (hTERT-BJ1 cells; 2.6 µM): 101 ± 10.5%
Relative MTT viability (%) (hTERT-BJ1 cells; 26 µM): 101 ± 8.8%
Relative MTT viability (%) (hTERT-BJ1 cells; 265 µM): 91 ± 11.8%
IC50 (human hepatoma G2 cells): > 20 µM
IC50 (rat glioma C6 cells): > 20 µM
Relative SEAP activity (%) ([3]; 2.6 μM): 89 ± 4.9%
Relative SEAP activity (%) ([3]; 26 μM): 71 ± 9.8%
Relative SEAP activity (%) ([3]; 265 μM): 27 ± 2.0%
IC50 [4]: 10.3 ± 0.24 µM
